Measured values from the NIST ThermoML archive (doi:10.1021/je1005483).
Numbers after ± are expanded uncertainties.

Tests used:
[1] = 101.3 kPa, Liquid; for speed of sound: 298.15 K
[2] = molar heat capacity at constant pressure; conditions: 298.15 K; 101.3 kPa; Liquid; Flow calorimetry
[3] = xn = mol fraction of the nth substance listed; conditions: 101.3 kPa, Liquid; for speed of sound: 298.15 K

CC1COC(=O)O1 (configuration not stated) [4-methyl-1,3-dioxolan-2-one]
Conditions	molar heat capacity at constant pressure [J/K/mol]	speed of sound [m/s]
[1]	–	1443 ± 2.9
[2]	166.98 ± 1	–

[1]
Conditions	mass density [kg/m3]
308.15 K	1188.73 ± 0.34
318.15 K	1179.31 ± 0.33

CC(=O)N(C)C [N,N-dimethylethanamide]
Conditions	speed of sound [m/s]
[1]	1458.7 ± 2.9

[1]
Conditions	mass density [kg/m3]
308.15 K	927.294 ± 0.19
318.15 K	918.616 ± 0.2

CC(=O)N(C)C [N,N-dimethylethanamide] + CC#N
[3]
Conditions	speed of sound [m/s]
x1 = 0.04872	1286.5 ± 2.7
x1 = 0.1004	1297.5 ± 2.7
x1 = 0.1898	1315.5 ± 2.7
x1 = 0.2932	1336.4 ± 2.7
x1 = 0.4046	1357.3 ± 2.8
x1 = 0.503	1375.5 ± 2.8
x1 = 0.6044	1393.7 ± 2.8
x1 = 0.7074	1410.8 ± 2.9
x1 = 0.8048	1427.5 ± 2.9
x1 = 0.9035	1440 ± 2.9
x1 = 1	1458.7 ± 2.9

mass density [kg/m3], [3]
Conditions	308.15 K	318.15 K
x1 = 0.00994	768.688 ± 0.37	–
x1 = 0.01091	–	759.018 ± 0.38
x1 = 0.02031	771.713 ± 0.37	–
x1 = 0.02054	–	761.841 ± 0.38
x1 = 0.03016	774.535 ± 0.36	–
x1 = 0.0309	–	764.83 ± 0.38
x1 = 0.04069	777.504 ± 0.36	–
x1 = 0.04289	–	768.228 ± 0.37
x1 = 0.05104	780.389 ± 0.36	–
x1 = 0.0529	–	771.009 ± 0.37
x1 = 0.05848	782.424 ± 0.36	–
x1 = 0.05906	–	772.711 ± 0.37
x1 = 0.06932	785.313 ± 0.35	–
x1 = 0.06978	–	775.606 ± 0.36
x1 = 0.08223	788.745 ± 0.35	–
x1 = 0.08535	–	779.778 ± 0.36
x1 = 0.08742	–	780.299 ± 0.36
x1 = 0.09057	790.902 ± 0.35	–
x1 = 0.1009	793.541 ± 0.34	–
x1 = 0.1022	–	784.094 ± 0.35
x1 = 0.1438	–	794.432 ± 0.34
x1 = 0.1497	805.533 ± 0.33	–
x1 = 0.1834	–	803.73 ± 0.33
x1 = 0.1884	814.49 ± 0.32	–
x1 = 0.2301	–	813.975 ± 0.32
x1 = 0.237	824.887 ± 0.31	–
x1 = 0.2935	–	826.829 ± 0.31
x1 = 0.3015	837.769 ± 0.3	–
x1 = 0.387	–	843.966 ± 0.29
x1 = 0.4044	856.101 ± 0.28	–
x1 = 0.503	–	862.53 ± 0.29
x1 = 0.5085	872.475 ± 0.27	–
x1 = 0.6026	–	876.476 ± 0.29
x1 = 0.6251	888.44 ± 0.25	–
x1 = 0.7047	–	889.23 ± 0.3
x1 = 0.7059	898.16 ± 0.23	–
x1 = 0.8034	908.919 ± 0.21	–
x1 = 0.8085	–	900.68 ± 0.32
x1 = 0.9024	918.675 ± 0.2	–
x1 = 0.909	–	910.546 ± 0.35
x1 = 0.9117	919.547 ± 0.2	–
x1 = 0.9144	–	911.049 ± 0.35
x1 = 0.9215	–	911.696 ± 0.21
x1 = 0.9216	920.459 ± 0.2	–
x1 = 0.932	–	912.659 ± 0.21
x1 = 0.9322	921.402 ± 0.2	–
x1 = 0.941	922.202 ± 0.2	–
x1 = 0.9414	–	913.506 ± 0.2
x1 = 0.9515	923.129 ± 0.2	–
x1 = 0.9546	–	914.681 ± 0.36
x1 = 0.9614	924 ± 0.2	–
x1 = 0.963	–	915.423 ± 0.36
x1 = 0.9712	924.844 ± 0.19	–
x1 = 0.9716	–	916.181 ± 0.2
x1 = 0.9809	–	916.988 ± 0.2
x1 = 0.9811	925.7 ± 0.19	–
x1 = 0.9893	926.398 ± 0.19	–
x1 = 0.9911	–	917.856 ± 0.37
x1 = 1	927.294 ± 0.19	918.616 ± 0.2

CC#N [acetonitrile]
Conditions	speed of sound [m/s]
[1]	1279.6 ± 2.7

[1]
Conditions	mass density [kg/m3]
308.15 K	765.735 ± 0.38
318.15 K	755.763 ± 0.39

CC#N [acetonitrile] + CC1COC(=O)O1
Conditions	speed of sound [m/s]
[3], x2 = 0	1279.6 ± 2.7

[3], x2 = 0
Conditions	mass density [kg/m3]
308.15 K	765.735 ± 0.38
318.15 K	755.763 ± 0.39

CC#N [acetonitrile] + CC(=O)N(C)C
Conditions	speed of sound [m/s]
[3], x2 = 0	1279.6 ± 2.7

[3], x2 = 0
Conditions	mass density [kg/m3]
308.15 K	765.735 ± 0.38
318.15 K	755.763 ± 0.39
